# Reference: PubChem BioAssay AID1259411 (Chemical Carcinogenesis Research Information System (CCRIS), 2018)
# The source made the active and inactive calls. No rule for the calls is given here.
# System: rodent carcinogenicity bioassays, tumor incidence
# Assay: CCRIS carcinogenicity studies
# How it was run: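 Archive of carcinogenicity, mutagenicity, tumor promotion and tumor inhibition results drawn from journals, NCI reports and other sources, expert-reviewed; covers 1985-2011 and is no longer updated.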
smiles,measurement,setting,value
C[C@](N)(Cc1ccc(O)c(O)c1)C(=O)O,carcinogen call,"Species: MOUSE, Strain/Sex: B6C3F1/FEMALE, Route: ORAL, Dose: 0, 6300, 12500 PPM IN FEED FOR 103 WK (STUDY DURATION: 104 WK), Dose: 0, 6300, 12500 PPM IN FEED FOR 103 WK (STUDY DURATION: 104 WK)",inactive; negative
same,carcinogen call,"Species: MOUSE, Strain/Sex: B6C3F1/MALE, Route: ORAL, Dose: 0, 6300, 12500 PPM IN FEED FOR 103 WK (STUDY DURATION: 104 WK), Dose: 0, 6300, 12500 PPM IN FEED FOR 103 WK (STUDY DURATION: 104 WK), Tumor Site: Type of Lesion: KIDNEY: RENAL TUBULAR CELL ADENOMA OR ADENOCARCINOMA",equivocal
same,carcinogen call,"Species: RAT, Strain/Sex: F344/FEMALE, Route: ORAL, Dose: 0, 3100, 6300 PPM IN FEED FOR 103 WK (STUDY DURATION: 104 WK), Dose: 0, 3100, 6300 PPM IN FEED FOR 103 WK (STUDY DURATION: 104 WK)",inactive; negative
same,carcinogen call,"Species: RAT, Strain/Sex: F344/MALE, Route: ORAL, Dose: 0, 3100, 6300 PPM IN FEED FOR 103 WK (STUDY DURATION: 104 WK), Dose: 0, 3100, 6300 PPM IN FEED FOR 103 WK (STUDY DURATION: 104 WK)",inactive; negative
Nc1ccc2cc3ccc(N)cc3nc2c1,carcinogen call,"Species: MOUSE, Strain/Sex: B6C3F1/FEMALE, Route: ORAL, Dose: 0, 200, 400 PPM IN DIET FOR 104 WK (STUDY DURATION: 104 WK), Dose: 0, 200, 400 PPM IN DIET FOR 104 WK (STUDY DURATION: 104 WK), Tumor Site: Type of Lesion: LIVER: HEPATOCELLULAR CARCINOMA",equivocal
same,carcinogen call,"Species: MOUSE, Strain/Sex: B6C3F1/MALE, Route: ORAL, Dose: 0, 200, 400 PPM IN DIET FOR 104 WK (STUDY DURATION: 104 WK), Dose: 0, 200, 400 PPM IN DIET FOR 104 WK (STUDY DURATION: 104 WK), Tumor Site: Type of Lesion: LIVER: HEPATOCELLULAR CARCINOMA",equivocal
same,carcinogen call,"Species: RAT, Strain/Sex: F344/FEMALE, Route: ORAL, Dose: 0, 300, 600 PPM IN DIET, Dose: 0, 300, 600 PPM IN DIET",inactive; negative
same,carcinogen call,"Species: RAT, Strain/Sex: F344/MALE, Route: ORAL, Dose: 0, 300, 600 PPM IN DIET FOR 109 WK (STUDY DURATION: 109 WK), Dose: 0, 300, 600 PPM IN DIET FOR 109 WK (STUDY DURATION: 109 WK), Tumor Site: Type of Lesion: INTESTINE: LEIOMYOSARCOMA OR ADENOCARCINOMA OR SARCOMA",equivocal
[Be],carcinogen call,"Species: RAT, Strain/Sex: WISTAR/FEMALE, Route: INTRATRACHEAL, Dose: 0, 0.5, 2.5 MG, SINGLE DOSE IN SALINE SUSPENSION, Tumor Site: Type of Lesion: LUNG",active; positive
same,carcinogen call,"Species: RAT, Strain/Sex: WISTAR/FEMALE, Route: INTRATRACHEAL, Dose: 0.5, 2.5 MG/RAT IN SALINE SUSPENDED ONCE, Tumor Site: Type of Lesion: LUNG",active; positive
N#CCCC(Br)(C#N)CBr (centres undefined),carcinogen call,"Species: Mouse, Strain/Sex: B6C3F1/Female (50/Group), Route: Dermal, Dose: 0, 0.6, 2, 6 mg/kg in 95% ethanol on clipped area of skin 5 d/wk for 2 yr, Dose: 0, 0.6, 2, 6 mg/kg in 95% ethanol on clipped area of skin 5 d/wk for 2 yr",inactive; negative
same,carcinogen call,"Species: Mouse, Strain/Sex: B6C3F1/Male (50/Group), Route: Dermal, Dose: 0, 0.6, 2, 6 mg/kg in 95% ethanol on clipped area of skin 5 d/wk for 2 yr, Dose: 0, 0.6, 2, 6 mg/kg in 95% ethanol on clipped area of skin 5 d/wk for 2 yr",inactive; negative
same,carcinogen call,"Species: Rat, Strain/Sex: F344/N / Female (50/Group), Route: Dermal, Dose: 0, 2, 6, 18 mg/kg in 95% ethanol on clipped area of skin 5 d/wk for 2 yr, Dose: 0, 2, 6, 18 mg/kg in 95% ethanol on clipped area of skin 5 d/wk for 2 yr",inactive; negative
same,carcinogen call,"Species: Rat, Strain/Sex: F344/N / Male (50/Group), Route: Dermal, Dose: 0, 2, 6, 18 mg/kg in 95% ethanol on clipped area of skin 5 d/wk for 2 yr, Dose: 0, 2, 6, 18 mg/kg in 95% ethanol on clipped area of skin 5 d/wk for 2 yr",inactive; negative
NS(=O)(=O)c1cc(C(=O)O)c(NCc2ccco2)cc1Cl,carcinogen call,"Species: MOUSE, Strain/Sex: B6C3F1/FEMALE, Route: ORAL, Dose: 0, 700, 1400 PPM IN FEED FOR 104 WK (STUDY DURATION: 107 WK), Dose: 0, 700, 1400 PPM IN FEED FOR 104 WK (STUDY DURATION: 107 WK), Tumor Site: Type of Lesion: MAMMARY GLAND: MIXED TUMOR, MALIGNANT, MAMMARY GLAND: MIXED TUMOR, MALIGNANT OR ACINAR CELL CARCINOMA",active; positive
same,carcinogen call,"Species: MOUSE, Strain/Sex: B6C3F1/MALE, Route: ORAL, Dose: 0, 700, 1400 PPM IN FEED FOR 104 WK (STUDY DURATION: 107 WK), Dose: 0, 700, 1400 PPM IN FEED FOR 104 WK (STUDY DURATION: 107 WK)",inactive; negative
same,carcinogen call,"Species: RAT, Strain/Sex: F344/FEMALE, Route: ORAL, Dose: 0, 350, 700 PPM IN FEED FOR 103 WK (STUDY DURATION: 106 WK), Dose: 0, 350, 700 PPM IN FEED FOR 103 WK (STUDY DURATION: 106 WK)",inactive; negative
same,carcinogen call,"Species: RAT, Strain/Sex: F344/MALE, Route: ORAL, Dose: 0, 350, 700 PPM IN FEED FOR 103 WK (STUDY DURATION: 106 WK), Dose: 0, 350, 700 PPM IN FEED FOR 103 WK (STUDY DURATION: 106 WK), Tumor Site: Type of Lesion: KIDNEY: RENAL TUBULE CELL ADENOMA OR ADENOCARCINOMA, BRAIN: MENINGIOMA",equivocal
O[C@H]1CCc2c(ccc3cc4ccc5ccccc5c4nc23)[C@@H]1O,carcinogen call,"Species: MOUSE, Strain/Sex: CD-1/FEMALE, Route: INTRAPERITONEAL, Dose: 0, 175 NMOL (TOTAL DOSE) ADMINISTERED AS 1/7 OF DOSE WITHIN 24 HR AFTER BIRTH, 2/7 OF DOSE AT 8 D OLD, 4/7 OF DOSE AT 15",inactive; negative
same,carcinogen call,"Species: MOUSE, Strain/Sex: CD-1/MALE, Route: INTRAPERITONEAL, Dose: 0, 175 NMOL (TOTAL DOSE) ADMINISTERED AS 1/7 OF DOSE WITHIN 24 HR AFTER BIRTH, 2/7 OF DOSE AT 8 D OLD, 4/7 OF DOSE AT 15",inactive; negative
O.O.O.O.O.O.O.O=S(=O)(O)O.[Co+2],carcinogen call,"Species: MOUSE, Strain/Sex: B6C3F1/FEMALE, Route: INHALATION, Dose: 0, 0.3, 1, 3 MG/M3 6HR/D 5 D/WK FOR 105 WK (STUDY DURATION: 105 WK), Dose: 0, 0.3, 1, 3 MG/M3 6HR/D 5 D/WK FOR 105 WK (STUDY DURATION: 105 WK), Tumor Site: Type of Lesion: LUNG: ALVEOLAR/BRONCHIOLAR ADENOMA, ALVEOLAR/BRONCHIOLAR CARCINOMA",active; positive
same,carcinogen call,"Species: MOUSE, Strain/Sex: B6C3F1/MALE, Route: INHALATION, Dose: 0, 0.3, 1, 3 MG/M3 6HR/D 5 D/WK FOR 105 WK (STUDY DURATION: 105 WK), Dose: 0, 0.3, 1, 3 MG/M3 6HR/D 5 D/WK FOR 105 WK (STUDY DURATION: 105 WK), Tumor Site: Type of Lesion: LUNG: ALVEOLAR/BRONCHIOLAR ADENOMA, ALVEOLAR/BRONCHIOLAR CARCINOMA",active; positive
same,carcinogen call,"Species: RAT, Strain/Sex: F344/FEMALE, Route: INHALATION, Dose: 0, 0.3, 1, 3 MG/M3 6HR/D 5 D/WK FOR 105 WK (STUDY DURATION: 105 WK), Dose: 0, 0.3, 1, 3 MG/M3 6HR/D 5 D/WK FOR 105 WK (STUDY DURATION: 105 WK), Tumor Site: Type of Lesion: LUNG: ALVEOLAR/BRONCHIOLAR ADENOMA, ALVEOLAR/BRONCHIOLAR CARCINOMA, ADRENAL MEDULLA: BENIGN, COMPLEX, OR MALIGNANT PHEOC",active; positive
same,carcinogen call,"Species: RAT, Strain/Sex: F344/N/MALE, Route: INHALATION, Dose: 0, 0.3, 1, 3 MG/M3 6HR/D 5 D/WK FOR 105 WK (STUDY DURATION: 105 WK), Dose: 0, 0.3, 1, 3 MG/M3 6HR/D 5 D/WK FOR 105 WK (STUDY DURATION: 105 WK), Tumor Site: Type of Lesion: LUNG: ALVEOLAR/BRONCHIOLAR ADENOMA",active; positive
COc1c(N2C[C@@H]3CCCN[C@@H]3C2)c(F)cc2c(=O)c(C(=O)O)cn(C3CC3)c12,carcinogen call,"Species: RAT, Strain/Sex: WISTAR/MALE, FEMALE, Route: GAVAGE, Dose: 0, 500 MG/KG BW/D FOR 38 WK (STUDY DURATION: 38 WK)",inactive; negative
C=C(C)c1ccccc1,carcinogen call,"Species: Mouse, Strain/Sex: B6C3F1/Female (50/group), Route: Inhalation, Dose: 0, 100, 300, 600 ppm for 6 hr/d, 5 d/wk, except holidays, for 105 wk, Dose: 0, 100, 300, 600 ppm for 6 hr/d, 5 d/wk, except holidays, for 105 wk, Tumor Site: Type of Lesion: Liver: hepatocelllular carcinoma (3/50, 9/50, 6/50, 18/50), hepatocellular adenoma and carcinoma combined (13/50, 26/50",active; positive (ntp reports as clear evidence)
same,carcinogen call,"Species: Mouse, Strain/Sex: B6C3F1/Male (50/group), Route: Inhalation, Dose: 0, 100, 300, 600 ppm for 6 hr/d, 5 d/wk, except holidays, for 105 wk, Dose: 0, 100, 300, 600 ppm for 6 hr/d, 5 d/wk, except holidays, for 105 wk, Tumor Site: Type of Lesion: Liver: hepatocellular adenoma and carcinoma combined (28/50, 36/50, 33/50, 37/50 (considered equivocal))",inactive; negative; p value not significant (ntp reports as equivocal evidence)
same,carcinogen call,"Species: Rat, Strain/Sex: F344/N / Female (50/group), Route: Inhalation, Dose: 0, 100, 300, 1000 ppm for 6 hr/d, 5 d/wk, except holidays, for 105 wk, Dose: 0, 100, 300, 1000 ppm for 6 hr/d, 5 d/wk, except holidays, for 105 wk",inactive; negative
same,carcinogen call,"Species: Rat, Strain/Sex: F344/N / Male (50/group), Route: Inhalation, Dose: 0, 100, 300, 1000 ppm for 6 hr/d, 5 d/wk, except holidays, for 105 wk, Dose: 0, 100, 300, 1000 ppm for 6 hr/d, 5 d/wk, except holidays, for 105 wk, Tumor Site: Type of Lesion: Kidney: renal tubule adenoma and carcinoma combined (0/50, 0/50, 3/50, 7/50 (single and step sections)) Mononuclear cell",active; positive (ntp reports as some evidence)
